Reference: patent publication US20030091533A1, “Regulation of mononuclear phagocyte stimulation” (priority 2001, published 2003)
Marks after values point to notes of the source that are not given here.

Assays:
Type in all cases: cell-based, human
[1] = system: LPS-stimulated AM; experiment: TNF-α release, cytotoxic bioassay with WEHI 164 clone 13 cells, AM; details: for TNF-α release by LPS-stimulated AM: preincubated 24 hour with cytokine (IL-9, IL-4 20 ng/ml, IFN-γ 200 U/ml) or medium, LPS 1 μg/ml 20 h, without LPS 4.6±2.1
Description: (§1) PBM and AM obtained as described infra (1×10^6 PBM, 0.5×10^6 AM) were preincubated for 24 hour with cytokines, IL-4, IL-9 (20 ng/ml) and IFN-γ (200 U/ml) before the stimulation by LPS (1 μg/ml) for 20 h. Supernatants were harvested and frozen at −20° C. until cytokine titration. TNF-α release was determined in supernatants by a cytotoxic bioassay using WEHI 164 clone 13 target cells (Espevik and Nissen-Meyer, J. Immunol. Methods, 95:99-105 (1986) (incorporated herein by reference)), while IL-8 was quantitated in the same supernatants by ELISA. FIG. 5 depicts the effects of IL-9, IL-4, and IFN-γ on the release of TNFα (A) and IL-8 (B) by LPS-stimulated PBM and AM. Data are means±SEM (n=3). *P<0.001 compared with unstimulated cells; **P<0.05 compared with cells preincubated with medium.
(§2) Cells (1×10^6 PBM or 0.5×10^6 AM/well) were distributed in 24-well plates (Falcon), preincubated in cRPMI for 24 hours at 37° C., 5% CO2 with cytokines (IL-9, IL-4 (20 ng/ml) and IFN-γ (200 U/ml)) and stimulated for 20 hours with 1 μg/ml LPS without removing cytokines. Supernatants were harvested and frozen at −20° C. until cytokine titration. Release of TNF-α was quantified by a cytotoxicity bioassay using WEHI 164 cells clone 13, as previously described (Espevik and Nissen-Meyer, J. Immunol. Methods, 95:99-105 (1986) incorporated herein by reference), using rhTNF-α from Boehringer as a standard. IL-8, IL-10 and TGF-β1 concentrations were determined by ELISA. A kit from CLB (Amsterdam, The Netherlands) was used for IL-10 quantitation, following the manufacturer's protocol. A kit from Biosource allowed to determine TGF-β1 after the release from its latent complexes by a treatment of supernatants with ethanol acid (‘acid-treated supernatants’); TGF-P 1 was also assessed in crude supernatants (‘untreated supernatants’). […] The reaction was then developed in 0.03% v/v H2O2 substrate and 0.42 mM 3,3′,5,5′-tetramethylbenzidine as chromogen in 100 mM sodium acetate/citric acid buffer (pH 4.9), stopped with 2 M H2SO4, and read in a plate spectrometer at 450 nm. […]

[2] = system: CD14; experiment: CD14 surface expression on PBM by FACS; details: for CD14 expression (MFI): PBM preincubated 24 hour, 20 ng/ml IL-9 or IL-4, 200 U/ml IFN-γ, means±SD, medium 107 ± 4; for CD14 expression on the surface of PBM compared with medium alone: preincubated for 24 hour
Description: Table 2. Cells (0.2×10^6) were preincubated for 24 hour with cytokines (20 ng/ml for IL-9 or IL-4 and 200 U/ml for IFN-γ), before the assessment of LPS receptor expression by immunostaining using anti-human CD14 mAb conjugated to FITC and anti-human TLR4 rabbit Ab followed by mouse anti-rabbit IgG (MAR-FITC). Cell-associated fluorescence was evaluated by FACS and expressed as mean fluorescence intensity (MFI). Autofluorescence of PBM was negligible (MFI: 3±1). Data are means±SD (n=3), and are representative of two experiments. *P<0.05 compared with cells preincubated with medium.
Additional stainings for CD14 and Toll-like receptor (TLR)-4 were performed on PBM preincubated for 24 hour with cytokines, using respectively FITC-conjugated anti-CD14 mAb (clone MøP9, mIgG2b, Becton Dickinson) and anti-TLR4 rabbit Ab (Santa Cruz, Calif.) followed by F (ab′)2 fragments of mouse anti-rabbit IgG (MAR)-FITC.

[3] = system: LPS-stimulated PBM; experiment: TNF-α release, cytotoxic bioassay with WEHI 164 clone 13 cells, PBM; details: preincubated 24 hour with cytokine (IL-9, IL-4 20 ng/ml, IFN-γ 200 U/ml) or medium, LPS 1 μg/ml 20 h; without LPS 10.2±4.1
Description: as §1, §2

[4] = system: LPS-stimulated PBM; experiment: IL-10 release by ELISA, PBM; details: for IL-10 release by LPS-stimulated PBM: preincubated 24 hour, LPS 20 h
Description: FIG. 6 depicts the effect of IL-9, IL-4 and IFN-γ on the release of IL-10 (A) and TGF-β1 (B) by LPS-stimulated PBM and AM cultured under the same conditions as described in FIG. 5 Example I. D. TGF-β1 was determined by ELISA in crude supernatants (untreated supernatants) and in ethanol-acid (acid-treated) supernatants, using a kit from Biosource for determining TGF-β1 release from its latent complexes. An ELISA kit from CLB (Amsterdam, The Netherlands) was used to determine IL-10 following the manufacturer's protocol. […] Data are means±SEM (n=3). *P<0.05 compared with unstimulated cells; **P<0.05 compared with cells preincubated with medium.
as §2, with “supernatants’). To assay for IL-8, 96-well plates were coated overnight at 4° C. with 4 μg/ml anti-hIL-8 mAb (Sigma, clone 6217.11) in 100 mM sodium carbonate buffer (pH 9.6).” for “supernatants’).”

Molecule: IL-4: Th2 cytokine interleukin-4 used as comparator, 20 ng/ml
- effect on TNF-α production in LPS-stimulated AM ([1]; preincubated 24 hour, LPS 20 h): No significant inhibition
- CD14 expression (MFI) [2]: 57 ± 3* MFI
- CD14 expression on the surface of PBM compared with medium alone [2]: down regulated
- TNF-α release by LPS-stimulated PBM [3]: 72.5 ± 21.5 pg/mL
- IL-10 release by LPS-stimulated PBM [4]: inhibited

Molecule: IL-9: Human IL-9 purified from SF9 insect cell cultures infected with recombinant baculovirus
- TNF-α release by LPS-stimulated AM [1]: 74.8 ± 10.2 pg/mL
- CD14 expression (MFI) [2]: 108 ± 5 MFI
- effect on the up regulation of CD14 on PBM incubated with IFN-γ ([2]; co-incubation with IFN-γ): inhibited
- CD14 expression on the surface of PBM compared with medium alone [2]: not significantly different
- TNF-α release by LPS-stimulated PBM [3]: 84.2 ± 17.2 pg/mL
- LPS-induced IL-10 release by PBM ([4]; preincubated 24 hour 20 ng/ml, LPS 1 μg/ml 20 h, medium-preincubated 217.8±25.8): 119.7 ± 8.7 pg/mL

B1: IFN-γ: Interferon gamma, primes mononuclear phagocytes, 200 U/ml (protein, UniProt P01579 24-161, looked up)
Interferon gamma: QDPYVKEAENLKKYFNAGHSDVADNGTLFLGILKNWKEESDRKIMQSQIVSFYFKLFKNFKDDQSIQKSVETIKEDMNVKFFNSNKKKRDDFEKLTNYSVTDLNVQRKAIHELIQVMAELSPAAKTGKRKRSQMLFRG
- TNF-α release by LPS-stimulated AM [1]: 145.2 ± 9.4 pg/mL
- CD14 expression (MFI) [2]: 121 ± 6* MFI
- CD14 expression on the surface of PBM compared with medium alone [2]: increased
- TNF-α release by LPS-stimulated PBM [3]: 289.8 ± 12.9 pg/mL
- IL-10 release by LPS-stimulated PBM [4]: decreased
